Tests used:
D(4) dopamine receptor = target: T1, D(4) dopamine receptor (Homo sapiens, UniProt P21917); assay: ChEBML_60841
T1 sequence (P21917 whole entry): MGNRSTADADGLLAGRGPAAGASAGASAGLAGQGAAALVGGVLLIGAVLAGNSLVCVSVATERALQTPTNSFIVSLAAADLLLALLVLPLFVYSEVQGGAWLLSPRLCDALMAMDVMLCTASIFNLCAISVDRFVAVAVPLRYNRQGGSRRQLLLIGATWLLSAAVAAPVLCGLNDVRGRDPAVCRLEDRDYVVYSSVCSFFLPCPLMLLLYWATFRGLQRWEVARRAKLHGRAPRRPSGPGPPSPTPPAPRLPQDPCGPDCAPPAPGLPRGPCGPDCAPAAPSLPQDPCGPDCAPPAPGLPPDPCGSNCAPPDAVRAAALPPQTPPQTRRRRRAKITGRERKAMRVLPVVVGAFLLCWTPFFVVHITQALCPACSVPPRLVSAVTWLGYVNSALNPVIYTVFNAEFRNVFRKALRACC
Text: Binding affinity for human cloned Dopamine receptor D4

[1] = target: T2, Alpha-2A adrenergic receptor (Homo sapiens, UniProt P08913); assay: ChEBML_33198
T2 sequence (P08913 whole entry): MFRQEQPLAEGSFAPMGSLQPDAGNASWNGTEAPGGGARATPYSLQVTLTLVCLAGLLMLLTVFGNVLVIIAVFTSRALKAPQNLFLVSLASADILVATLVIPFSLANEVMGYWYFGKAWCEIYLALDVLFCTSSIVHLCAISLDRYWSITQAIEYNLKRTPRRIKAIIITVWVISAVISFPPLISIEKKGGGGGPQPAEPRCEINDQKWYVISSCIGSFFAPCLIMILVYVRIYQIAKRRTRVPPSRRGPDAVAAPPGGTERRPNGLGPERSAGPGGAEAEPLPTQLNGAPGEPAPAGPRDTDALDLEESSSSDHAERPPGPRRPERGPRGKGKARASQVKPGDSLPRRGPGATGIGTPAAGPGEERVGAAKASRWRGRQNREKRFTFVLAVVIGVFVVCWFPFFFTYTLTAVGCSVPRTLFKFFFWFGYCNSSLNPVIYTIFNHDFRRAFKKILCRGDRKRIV
Text: Binding affinity for human cloned Alpha-2A adrenergic receptor

[2] = target: 5-hydroxytryptamine receptor 1D (Homo sapiens, UniProt P28221); assay: ChEBML_1745
Text: Binding affinity for human cloned 5-hydroxytryptamine 1D receptor

D(3) dopamine receptor = D(3) dopamine receptor (Homo sapiens, UniProt P35462); assay: ChEBML_62451
Text: Binding affinity for human cloned Dopamine receptor D3

[3] = target: T3, 5-hydroxytryptamine receptor 1A (Homo sapiens, UniProt P08908); assay: ChEBML_1016
T3 sequence (P08908 whole entry): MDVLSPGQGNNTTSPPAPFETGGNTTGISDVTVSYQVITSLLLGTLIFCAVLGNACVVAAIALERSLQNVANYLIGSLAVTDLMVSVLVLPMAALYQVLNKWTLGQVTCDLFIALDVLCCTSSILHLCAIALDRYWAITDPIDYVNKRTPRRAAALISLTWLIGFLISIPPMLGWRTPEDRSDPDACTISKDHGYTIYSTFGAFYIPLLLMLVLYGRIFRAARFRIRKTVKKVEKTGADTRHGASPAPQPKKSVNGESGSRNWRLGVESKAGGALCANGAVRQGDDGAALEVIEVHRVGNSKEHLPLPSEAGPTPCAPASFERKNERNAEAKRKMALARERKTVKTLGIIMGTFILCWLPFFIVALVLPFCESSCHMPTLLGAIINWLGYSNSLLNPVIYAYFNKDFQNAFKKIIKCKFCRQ
Text: Binding affinity for human cloned 5-hydroxytryptamine 1A receptor

Histamine H1 receptor = Histamine H1 receptor (Homo sapiens, UniProt P35367); assay: ChEBML_84541
Text: Binding affinity at human cloned Histamine H1 receptor expressed in CHO cells by [3H]pyrilamine displacement.

[4] = target: T4, Alpha-1A adrenergic receptor (Homo sapiens, UniProt P35348); assay: ChEBML_33869
T4 sequence (P35348 whole entry): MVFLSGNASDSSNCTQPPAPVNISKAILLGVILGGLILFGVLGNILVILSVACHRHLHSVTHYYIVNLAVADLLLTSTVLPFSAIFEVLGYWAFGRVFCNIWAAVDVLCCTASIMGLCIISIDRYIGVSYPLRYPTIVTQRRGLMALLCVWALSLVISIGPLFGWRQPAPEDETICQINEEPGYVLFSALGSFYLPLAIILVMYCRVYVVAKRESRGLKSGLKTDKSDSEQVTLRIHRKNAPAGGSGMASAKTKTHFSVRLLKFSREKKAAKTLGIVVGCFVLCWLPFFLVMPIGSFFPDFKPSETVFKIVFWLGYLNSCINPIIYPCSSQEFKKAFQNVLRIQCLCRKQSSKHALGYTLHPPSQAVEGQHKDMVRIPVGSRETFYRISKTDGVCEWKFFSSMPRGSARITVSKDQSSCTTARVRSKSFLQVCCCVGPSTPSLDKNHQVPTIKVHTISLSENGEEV
Text: Binding affinity for human cloned Alpha-1A adrenergic receptor

D(2) dopamine receptor [5] = target: D(2) dopamine receptor (Rattus norvegicus, UniProt P61169); assay: ChEBML_60811
Text: Binding affinity for rat Dopamine receptor D2

D(2) dopamine receptor [6] = target: D(2) dopamine receptor (Homo sapiens, UniProt P14416); assay: ChEBML_61646
Text: Binding affinity for human cloned Dopamine receptor D2L

[7] = target: T5, Alpha-2C adrenergic receptor (Homo sapiens, UniProt P18825); assay: ChEBML_33661
T5 sequence (P18825 whole entry): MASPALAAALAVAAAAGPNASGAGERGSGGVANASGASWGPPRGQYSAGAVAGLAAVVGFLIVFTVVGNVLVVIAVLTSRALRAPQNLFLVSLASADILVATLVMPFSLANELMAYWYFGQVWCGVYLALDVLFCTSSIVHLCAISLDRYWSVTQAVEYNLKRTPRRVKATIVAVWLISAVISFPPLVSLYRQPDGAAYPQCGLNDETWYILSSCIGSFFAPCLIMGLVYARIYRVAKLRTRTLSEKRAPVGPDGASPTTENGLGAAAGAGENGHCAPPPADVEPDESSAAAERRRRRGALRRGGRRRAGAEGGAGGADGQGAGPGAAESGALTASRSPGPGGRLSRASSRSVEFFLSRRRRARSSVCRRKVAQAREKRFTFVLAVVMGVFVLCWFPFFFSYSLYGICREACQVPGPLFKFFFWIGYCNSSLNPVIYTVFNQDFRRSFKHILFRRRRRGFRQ
Text: Binding affinity for human cloned Alpha-2C adrenergic receptor

[8] = target: T6, 5-hydroxytryptamine receptor 2C (Homo sapiens, UniProt P28335); assay: ChEBML_2740
T6 sequence (P28335 whole entry): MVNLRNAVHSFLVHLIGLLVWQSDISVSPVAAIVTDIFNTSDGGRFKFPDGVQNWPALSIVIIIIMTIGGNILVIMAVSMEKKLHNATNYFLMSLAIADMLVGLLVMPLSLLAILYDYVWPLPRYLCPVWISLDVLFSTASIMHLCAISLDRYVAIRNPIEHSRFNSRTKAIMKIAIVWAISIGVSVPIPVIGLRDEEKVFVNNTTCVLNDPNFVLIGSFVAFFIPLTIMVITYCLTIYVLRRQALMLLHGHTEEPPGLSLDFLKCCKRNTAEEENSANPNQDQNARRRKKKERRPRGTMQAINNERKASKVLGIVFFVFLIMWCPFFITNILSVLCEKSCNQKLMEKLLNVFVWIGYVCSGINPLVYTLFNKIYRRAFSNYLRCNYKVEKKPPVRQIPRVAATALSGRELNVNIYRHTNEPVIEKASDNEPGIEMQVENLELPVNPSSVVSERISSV
Text: Binding affinity at human cloned 5-hydroxytryptamine 2C receptor expressed in CHO cells by [3H]mesulergine displacement.

[9] = target: T7, 5-hydroxytryptamine receptor 2A (Homo sapiens, UniProt P28223); assay: ChEBML_2507
Text: (§1) Binding affinity for human cloned 5-HT2A receptor expressed in L929 cells using [125I]R91150 as radioligand

[10] = target: T7, 5-hydroxytryptamine receptor 2A; assay: as §1

T7 sequence (P28223 whole entry): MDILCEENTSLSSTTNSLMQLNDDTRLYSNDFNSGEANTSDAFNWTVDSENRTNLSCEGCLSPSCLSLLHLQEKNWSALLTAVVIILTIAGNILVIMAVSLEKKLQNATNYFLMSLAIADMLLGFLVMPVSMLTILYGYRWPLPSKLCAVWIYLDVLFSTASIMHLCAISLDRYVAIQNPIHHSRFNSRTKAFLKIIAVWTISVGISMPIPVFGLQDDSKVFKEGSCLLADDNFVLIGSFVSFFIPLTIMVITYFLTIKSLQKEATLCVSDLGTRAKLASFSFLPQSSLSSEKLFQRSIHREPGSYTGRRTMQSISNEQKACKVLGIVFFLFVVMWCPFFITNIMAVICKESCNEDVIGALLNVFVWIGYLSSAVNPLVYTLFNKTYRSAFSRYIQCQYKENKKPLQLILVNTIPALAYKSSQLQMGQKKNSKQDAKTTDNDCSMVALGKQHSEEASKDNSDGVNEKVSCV
Sequence of D(2) dopamine receptor (Homo sapiens, UniProt P14416) (P14416 whole entry): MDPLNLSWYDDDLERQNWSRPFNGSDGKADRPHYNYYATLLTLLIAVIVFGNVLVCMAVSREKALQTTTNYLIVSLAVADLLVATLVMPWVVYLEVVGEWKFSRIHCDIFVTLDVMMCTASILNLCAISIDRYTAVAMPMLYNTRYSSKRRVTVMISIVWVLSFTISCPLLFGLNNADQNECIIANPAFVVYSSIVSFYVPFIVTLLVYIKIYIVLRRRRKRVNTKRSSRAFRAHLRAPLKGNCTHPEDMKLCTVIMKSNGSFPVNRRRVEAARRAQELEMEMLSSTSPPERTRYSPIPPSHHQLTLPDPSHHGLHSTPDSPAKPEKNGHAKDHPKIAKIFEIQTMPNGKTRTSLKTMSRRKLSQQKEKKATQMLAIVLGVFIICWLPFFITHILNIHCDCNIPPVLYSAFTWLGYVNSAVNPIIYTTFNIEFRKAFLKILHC
Sequence of D(2) dopamine receptor (Rattus norvegicus, UniProt P61169) (P61169 whole entry): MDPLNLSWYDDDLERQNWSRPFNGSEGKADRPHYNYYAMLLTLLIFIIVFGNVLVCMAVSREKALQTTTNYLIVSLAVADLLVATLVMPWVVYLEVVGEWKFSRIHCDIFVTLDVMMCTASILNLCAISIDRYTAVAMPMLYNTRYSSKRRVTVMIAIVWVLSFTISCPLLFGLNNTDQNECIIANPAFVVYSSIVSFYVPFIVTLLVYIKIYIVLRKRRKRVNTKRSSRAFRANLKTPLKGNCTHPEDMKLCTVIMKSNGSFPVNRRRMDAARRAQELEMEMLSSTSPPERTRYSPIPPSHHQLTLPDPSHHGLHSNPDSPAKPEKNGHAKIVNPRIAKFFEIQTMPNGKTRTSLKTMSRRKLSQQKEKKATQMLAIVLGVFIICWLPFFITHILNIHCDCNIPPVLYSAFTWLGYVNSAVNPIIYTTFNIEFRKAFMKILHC
Sequence of D(3) dopamine receptor (P35462 as listed by the source): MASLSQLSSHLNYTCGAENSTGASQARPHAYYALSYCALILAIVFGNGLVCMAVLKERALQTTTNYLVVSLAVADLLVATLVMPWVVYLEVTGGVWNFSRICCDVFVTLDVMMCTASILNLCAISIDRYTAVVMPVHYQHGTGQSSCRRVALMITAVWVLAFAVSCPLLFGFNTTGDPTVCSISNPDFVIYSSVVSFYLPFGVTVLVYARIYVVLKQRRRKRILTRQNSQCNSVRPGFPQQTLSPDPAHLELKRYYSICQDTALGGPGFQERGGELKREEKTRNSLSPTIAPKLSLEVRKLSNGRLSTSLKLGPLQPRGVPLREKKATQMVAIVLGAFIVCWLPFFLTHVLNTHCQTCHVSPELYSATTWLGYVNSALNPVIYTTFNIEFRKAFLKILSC
Sequence of Histamine H1 receptor (P35367 whole entry): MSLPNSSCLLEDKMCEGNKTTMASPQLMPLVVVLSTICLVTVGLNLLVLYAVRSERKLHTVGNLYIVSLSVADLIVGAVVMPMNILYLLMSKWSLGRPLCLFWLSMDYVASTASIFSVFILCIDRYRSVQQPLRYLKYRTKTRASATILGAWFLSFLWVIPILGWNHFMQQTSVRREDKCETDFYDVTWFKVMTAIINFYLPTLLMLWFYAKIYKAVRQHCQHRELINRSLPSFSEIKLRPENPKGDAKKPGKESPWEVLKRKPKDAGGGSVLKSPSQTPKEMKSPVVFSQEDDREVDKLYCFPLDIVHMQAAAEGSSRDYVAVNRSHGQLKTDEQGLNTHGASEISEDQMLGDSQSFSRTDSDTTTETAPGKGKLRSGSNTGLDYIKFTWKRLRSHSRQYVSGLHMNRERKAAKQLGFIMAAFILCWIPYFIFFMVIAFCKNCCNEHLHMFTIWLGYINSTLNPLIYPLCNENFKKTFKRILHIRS
Sequence of 5-hydroxytryptamine receptor 1D (P28221 whole entry): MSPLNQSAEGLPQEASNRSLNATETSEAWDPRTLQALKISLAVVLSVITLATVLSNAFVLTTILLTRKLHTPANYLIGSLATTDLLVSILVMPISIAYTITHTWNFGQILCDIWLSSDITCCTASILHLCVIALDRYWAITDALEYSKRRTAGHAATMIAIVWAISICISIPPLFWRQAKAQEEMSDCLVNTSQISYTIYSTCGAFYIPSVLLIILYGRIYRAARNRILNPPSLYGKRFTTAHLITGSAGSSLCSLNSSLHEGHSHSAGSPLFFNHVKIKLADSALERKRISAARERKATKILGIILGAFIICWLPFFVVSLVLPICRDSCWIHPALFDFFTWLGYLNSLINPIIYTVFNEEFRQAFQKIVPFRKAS

IC50 (D(4) dopamine receptor) | IC50 [1] | IC50 [2] | IC50 (D(3) dopamine receptor) | IC50 [3] | IC50 (Histamine H1 receptor) | IC50 [4] | IC50 (D(2) dopamine receptor [5]) | IC50 (D(2) dopamine receptor [6]) | IC50 [7] | IC50 [8] | IC50 [9] | IC50 [10] | Structure (SMILES)
14 nM | 501 nM | 302 nM | 14 nM | 1590 nM | 2.6 nM | 45 nM | < 1000 nM | 36 nM | 1170 nM |  |  |  | CN(C)CC1CC2c3ccccc3Cc3ccc(F)cc3N2O1 (configuration not stated)
2.6 nM | 479 nM | 135 nM | 0.55 nM | 200 nM | 2.3 nM | 14 nM | 8.9 nM | 8.7 nM | 871 nM | 1 nM | 3.5 nM |  | CN(C)CC1CC2c3ccccc3Cc3ccc(Cl)cc3N2O1 (configuration not stated)
< 1000 nM | < 1000 nM | < 1000 nM | < 1000 nM | < 1000 nM | 17 nM | 162 nM |  | 447 nM | < 1000 nM | 6.2 nM |  |  | CN(C)CC1CC2c3cc(F)ccc3Cc3ccc(F)cc3N2O1 (configuration not stated)
 |  |  |  |  | 16 nM |  |  |  |  | 6.3 nM |  |  | Cc1ccc2c(c1)Cc1ccccc1N1OC(CN(C)C)CC21 (configuration not stated)
< 1000 nM | < 1000 nM | < 1000 nM | < 1000 nM | < 1000 nM | 5.9 nM | 43 nM | < 1000 nM | 55 nM | < 1000 nM | 3 nM | 3.1 nM |  | Cc1ccc2c(c1)N1OC(CN(C)C)CC1c1ccccc1C2 (configuration not stated)
 |  |  |  |  | 15 nM |  |  |  |  | 10 nM | 32 nM |  | CN(C)CC1CC2c3ccccc3Cc3cccc(Cl)c3N2O1 (configuration not stated)
 |  |  |  |  | 14 nM |  |  |  |  | 19 nM | 302 nM |  | COc1ccc2c(c1)C1CC(CN(C)C)ON1c1ccccc1C2 (configuration not stated)
 |  |  |  |  | 48 nM |  |  |  |  | 7.6 nM | 68 nM |  | CN(C)CC1CC2c3c(cccc3C(F)(F)F)Cc3ccccc3N2O1 (configuration not stated)
 |  |  |  |  | < 1000 nM |  |  |  |  | < 1000 nM | < 1000 nM |  | CN(C)CC1CC2c3cccc(Cl)c3Cc3ccccc3N2O1 (configuration not stated)
 |  |  |  |  | 3.8 nM |  |  |  |  | 11 nM | 54 nM |  | CN(C)CC1CC2c3cc(F)ccc3Cc3ccccc3N2O1 (configuration not stated)
 |  |  |  |  | 6 nM |  |  |  |  | 3.9 nM | 91 nM |  | Cc1cccc2c1Cc1ccccc1C1CC(CN(C)C)ON21 (configuration not stated)
 |  |  |  |  | < 1000 nM |  |  |  |  | < 1000 nM | < 1000 nM |  | CN(C)CC1CC2c3c(F)cccc3Cc3ccccc3N2O1 (configuration not stated)
 |  |  |  |  | 2.3 nM |  |  |  |  | 12 nM |  |  | CN(C)CC1CC2c3cccc(F)c3Cc3ccccc3N2O1 (configuration not stated)
 |  |  |  |  | 7.9 nM |  |  |  |  | 11 nM |  | 22 nM | CN(C)CC1CC2c3ccccc3Cc3ccc(-c4ccccc4)cc3N2O1 (configuration not stated)
 |  |  |  |  | < 1000 nM |  |  |  |  | < 1000 nM | < 1000 nM |  | CN(C)CC1CC2c3cc(C(F)(F)F)ccc3Cc3ccccc3N2O1 (configuration not stated)
 |  |  |  |  | 37 nM |  |  |  |  | 437 nM | 1000 nM |  | CN(C)CC1CC2c3cccc(C(F)(F)F)c3Cc3ccccc3N2O1 (configuration not stated)
 |  |  |  |  | 12 nM |  |  |  |  | 30 nM | 48 nM |  | Cc1cccc2c1C1CC(CN(C)C)ON1c1ccccc1C2 (configuration not stated)
 |  |  |  |  | 1.7 nM |  |  |  |  | 5 nM | 24 nM |  | CN(C)CC1CC2c3ccccc3Cc3c(F)cccc3N2O1 (configuration not stated)
 |  |  |  |  | 1.3 nM |  |  |  |  | 4.7 nM | 6.9 nM |  | CN(C)CC1CC2c3ccccc3Cc3cc(F)ccc3N2O1 (configuration not stated)
